US8501233B2, “Compositions and methods for treating cancer” (Wake Forest University, priority 2007, dated 2013)

Assays:
RKO cells [1] = test: Cell death of RKO cells with Mitomycin C compositions, MTS assay (Example 7); format: cell-based, human; conditions: MMC 40 μM, including cells heated to 42° C.
Experimental: (§1) Three (3) 48 well plates containing 10,000-20,000 RKO cells/well (human colon carcinoma) were prepared for a series of experiments measuring cell death as a function of exposure to various compositions, including compositions according to some embodiments of the present invention.
(§2) RKO colorectal cancer cell lines were purchased from American Type Culture Collections (ATCC) and cultured in McCoys's media supplemented with 2.5 μg/ml of amphotericin, 1% L-glutamine, 1% penicillin/streptomycin, and 10% fetal bovine serum. Cells were seeded in wells of the appropriate trays at a density of 10,000-20,000 cells per well.
(§3) MWNTs were grown by chemical vapor deposition (CVD) using xylene as the carbon precursor and ferrocene as a catalyst at concentrations of 60 mg or 400 mg. Hydrogen and argon gases were used to flow the xylene through a preheater at 170° C. and a furnace oven at 700° C. An injection rate of 5 ml/hour for a one hour run yielded about 200 mg of carbon nanotubes.
(§4) 50 mg of the MWNTs were cut and cleaned by sonication in a mixture of 90 ml of concentrated sulfuric acid and 30 ml of concentrated nitric acid for 24 hours. The length of the nanotubes was about 2 μm as determined by transmission electron microscopy (TEM). MWNT suspensions were prepared by adding 1 mg of MWNT per 1 ml of aqueous solution comprising 0.1% by weight Pluronic 127® surfactant. […]

[2] = test system: HeLa cervical cancer cells; test: In vivo evaluation of localized hyperthermia, intraperitoneal cancer nodules in athymic mice (Example 11); conditions: Group 3 irradiated 10 seconds (42° C.), Group 2 heated 42° C. two hours, two weeks after treatment
Experimental: 15 athymic mice are divided equally into three treatment groups as provided in Table 13, with Group 1 receiving a treatment composition of 100 μg/ml of MWNTs, Group 2 receiving a treatment composition comprising 300 μM oxaliplatin, and Group 3 receiving a treatment composition comprising 300 μM oxaliplatin and 100 μg MWNT per ml.
Each animal of Groups 1-3 receives intraperitoneal injections of 1E6 HeLa cervical cancer cells which express folic acid receptors. […] Two weeks after the intraperitoneal injections of the cancerous cells, the intraperitoneal cavity of each animal in Groups 1-3 is exposed, and the cancer nodules photographed allowing size and number of the nodules to be recorded.
After examination and quantification of cancer nodules, two 5 ml solutions of FA functionalized MWNTs (100 μg/ml) are provided to the intraperitoneal cavity of each animal in Groups 1 and 3. […]
The animals of Groups 1-3 are allowed to recover for two weeks. […] The size and number of cancerous nodules at the time of sacrifice is compared to the initially recorded observations of size and number of cancerous nodules for each animal. Moreover, for each animal in the study, a total of about 1 to 10 mg of tumor nodule mass is retained to determine platinum content as determined by elemental analysis.

HCT 116 cells = test: Cell death of HCT 116 cells, single 8 second lasing (Example 8); format: cell-based, human; conditions: oxaliplatin 300 μM, including cells heated to 42° C.
Experimental: Two (2) 48 well plates containing 10,000-20,000 HCT 116 cells/well (human colon carcinoma) were prepared for a series of experiments measuring cell death as a function of exposure to various compositions, including compositions according to some embodiments of the present invention.
as §2, with “HCT 116” for “RKO”
as §3, §4

RKO cells [3] = test: Cell death of RKO cells after exposure to compositions, calorimetric assay (Example 4); format: cell-based, human; conditions: oxaliplatin 300 μM, heated to 42° C. for two hours
Experimental: Three (3) 48 well plates containing 20,000 RKO cells/well (human colon carcinoma) were prepared for a series of experiments measuring cell death as a function of exposure to various compositions, including compositions according to some embodiments of the present invention.
as §3
50 mg of the MWNTs were cut and cleaned by sonication in a mixture of 90 ml of concentrated sulfuric acid and 30 ml of concentrated nitric acid for 24 hours. The length of the nanotubes was about 2 μm as determined by transmission electron microscopy (TEM). MWNT suspensions were prepared by adding 1 mg of MWNT per 1 ml of aqueous solution having 0.1% by weight Pluronic 127® surfactant. The suspensions were sonicated to enhance MWNT dispersion. MWNT suspensions were diluted with water to a concentration of 100 μg MWNT/ml.
A solution comprising oxaliplatin at a concentration of 300 μM was obtained (Ox). […]
Cell death resulting from the addition of the various compositions at the three temperatures was monitored by calorimetric assay. […]

RKO cells [4] = test: Cell death / viability of RKO cells, MTS assay (Example 5); format: cell-based, human; conditions: oxaliplatin 300 μM, including cells heated to 42° C., MTS 48 hours after treatment
Experimental: as §1, with “cells/well (human colon carcinoma) and three (3) 48 well plates containing 10,000-20,000 HCT 116 cell/well” for “cells/well”
as §2, with “RKO and HCT 116” for “RKO”, “well. […]” for “well.”
50 mg of the MWNTs were cut and cleaned by sonication in a mixture of 90 ml of concentrated sulfuric acid and 30 ml of concentrated nitric acid for 24 hours. The length of the nanotubes was about 2 μm as determined by transmission electron microscopy (TEM). […]
Following incubation, the media in the wells of each of the plates was replaced with media containing MTS assay reagents from Promega's CellTiter 96® AQueous assay kit. Cell viability was quantified over a three hour period according to the manufacturers instructions.

| SMILES | cell death (RKO cells [1]) | reduction in the sizes and numbers of cancerous nodules (Groups 2 and 3 compared) [2] | cell death (HCT 116 cells) | cell death (RKO cells [3]) | cell death (RKO cells [4]) |
| --- | --- | --- | --- | --- | --- |
| CO[C@@]12[C@H](COC(N)=O)C3=C(C(=O)C(C)=C(N)C3=O)N1C[C@@H]1N[C@@H]12 [MMC, Mitomycin C] | significant death |  |  |  |  |
| O=C1[O][Pt]2([NH][C@@H]3CCCC[C@H]3[NH]2)[O]C1=O [oxaliplatin] |  | substantially similar reduction | significant death | significant | significant death |
